Data as given in patent publication US20210283107A1, “Methods to Expand the Spectrum of Gram-Positive Antibiotics” (NORTH CAROLINA STATE UNIVERSITY, priority 2016, published 2021).
“And” between values parts separate entries of the source, which are not always exact repeats. Identical values can stand only once.

How the values were obtained:
[1] = tested on: A. baumannii mutant AB522; assay: Dose dependent resistance suppression (antibiotic MIC with compound) in AB522; format: cell-based, Acinetobacter baumannii
Description: There was no notable reduction in antibiotic MIC observed with either compound and both strains 522 and 1310. […] Even at the highest concentration, no potentiation was observed.
Day Cultures (6 h) were subcultured to 5×10^5 CFU/mL in cation adjusted Mueller-Hinton broth (CAMHB). […] One milliliter of the resulting solution was aliquoted into a separate culture tube and was dosed with antibiotic so that the resulting concentration was the highest desirable concentration to be tested. Bacteria treated with antibiotic alone were used as a control. Row one of a 96-well plate was filled with 200 μL of the antibiotic/compound solution, and the remaining rows were filled with 100 μL of the remaining 4 mL bacterial subculture. The wells in row one were mixed five times before 100 μL was transferred to the following row (row two). Row two was then mixed five times, and 100 μL was transferred to row three. This process was repeated until the second to last row had been reached. The last row is left unexposed to antibiotic in order to serve as a negative control. The antibiotic only treated bacteria was plated by aliquoting 200 μL of the treated bacteria into row one and filling the remaining rows with untreated bacteria from the original bacteria subculture. The rows were mixed in the same way as described above. Plates were covered with Glad Press n'Seal and were incubated under stationary conditions at 37° C. for 16 hours. MIC values were recorded as the lowest concentration at which no bacterial growth was observed. Fold reductions were determined by comparison of the compound treated wells with the antibiotic only treated control wells.

AB5075 = assay: Checkerboard assay for FIC determination with colistin; format: cell-based, Acinetobacter baumannii; conditions: chequerboard, ΣFIC≥2 considered antagonistic
Description: Against AB5075, we determined that the ΣFIC with compound 1 to be 17 and the ΣFIC with compound 10 to be 33. These ΣFIC values indicate that both compounds are highly antagonistic with colistin as a ΣFIC≥2 is considered antagonistic.
Day Cultures (6 h) of A. baumannii 5075 were subcultured to 5×10^5 CFU/mL in cation adjusted Mueller-Hinton broth (CAMHB). 100 μL of the inoculated media was distributed into all wells of a 96-well plate except well 1A. Inoculated CAMHB (200 μL) containing compound (twice the highest concentration tested) was added to well 1A, and 100 μL of the same sample was added to wells 2A-12A. The contents in column A were mixed five times before 100 μL was transferred to column B. The contents of column B were mixed 5 times before transferring to column C. This process was repeated with the remainder of the columns up to column G. Column H was not mixed to allow determination of the antibiotic MIC alone. […] Row 12 was not mixed so that the MIC of the compound alone could be determined. The MICs of both compound and antibiotic alone were recorded, as well as the wells containing the combination. The ΣFICs were calculated as follows: ΣFIC=FIC (Compound)+FIC (antibiotic), where FIC (compound) is the MIC of the compound in the combination/MIC of the compound alone and the FIC (antibiotic) is the MIC of the antibiotic in combination/the MIC of the antibiotic alone. […]

## Nc1nc(-c2ccc(NC(=O)c3cc(Cl)cc(Cl)c3)cc2)c[nH]1 [Compound 1]
[1]; compound Conc. Tested 2 (μM)
  Azithromycin MIC: 8 µg/mL and 4 µg/mL
  Clarithromycin MIC: 1 µg/mL
  Erythromycin MIC: 2 µg/mL
  Vancomycin MIC: 64 µg/mL
[1]; compound Conc. Tested 3 (μM)
  Azithromycin MIC: 4 µg/mL and 8 µg/mL
  Clarithromycin MIC: 1 µg/mL
  Erythromycin MIC: 2 µg/mL and 4 µg/mL
  Vancomycin MIC: 64 µg/mL
[1]; compound Conc. Tested 4 (μM)
  Azithromycin MIC: 4 µg/mL
  Clarithromycin MIC: 1 µg/mL
  Erythromycin MIC: 4 µg/mL and 2 µg/mL
  Vancomycin MIC: 32 µg/mL
[1]; compound Conc. Tested 5 (μM)
  Azithromycin MIC: 4 µg/mL
  Clarithromycin MIC: 0.5 µg/mL
  Erythromycin MIC: 2 µg/mL
  Vancomycin MIC: 32 µg/mL
AB5075
  ΣFIC with colistin: 17
